Results on one molecule are retold here after publication PMC9861858, “Stereoselective Synthesis and Antiproliferative Activities of Tetrafunctional Diterpene Steviol Derivatives” (International Journal of Molecular Sciences, 2023).

Molecules are shown by their SMILES. ≈ marks a conversion by molar mass, not a printed value.

Series [1] in a line: Kinetic aqueous solubility. Particulars: phosphate buffered saline with 5% DMSO, aqueous with cosolvent or surfactant or cyclodextrin, kinetic from dmso stock; after 2 h, at 37 °C in PBS, pH 7.4, 5% DMSO; target concentration 500 μM; mean ± S.E.M, n = 3. Format: physicochemical. In short, it runs like this: (§1)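 Kinetic solubility: filtrates quantified by HPLC-DAD-MS against 5–500 μM calibration, target concentration 500 μM. PAMPA-GI: pH 6.5 phosphate donor, pH 7.4 PBS/5% DMSO acceptor, phosphatidylcholine/cholesterol 2:1 in dodecane membrane, 4 h at 37 °C; Pe and membrane retention calculated from HPLC-DAD-MS concentrations.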

Series [2] concerns MDA-MB-231 cells. The series is described as follows: MTT antiproliferative assay, MDA-MB-231. It counts as cell-based, human. Particulars: Homo sapiens, 72 h, values <20% considered negligible, read-out: Growth inhibition (%) ± SEM, MDA-MB-231. In short, it runs like this:
(§2)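 MTT, 72 h exposure; test conc. 10 μM and 30 μM; 5000 cells/well, o/n pre-incubation; EMEM/10% FBS, 37 °C, 5% CO2; A545 nm readout.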
A general note: Tetrazolium dyes change colour on reduction, which living cells bring about.

The test system of series [3] is HeLa cells. The series is described as follows: MTT antiproliferative assay, HeLa. Conditions: Homo sapiens, HeLa, 72 h, values <20% considered negligible, read-out: Growth inhibition (%) ± SEM, HeLa. It counts as cell-based, human. In short, it runs like this: as §2
Series [4] deals with SiHa cells. As to the kind of experiment: MTT antiproliferative assay, SiHa. Format: cell-based, human. Particulars: Homo sapiens, SiHa, 72 h, values <20% considered negligible, read-out: Growth inhibition (%) ± SEM, SiHa. In short, it runs like this: as §2
Series [5] has as its system A2780 cells. The series is described as follows: MTT antiproliferative assay, A2780. Format: cell-based, human. Particulars: Homo sapiens, 72 h, values <20% considered negligible, read-out: Growth inhibition (%) ± SEM, A2780. Summed up: as §2
In series [6] the test system is NIH/3T3 fibroblasts. The series is described as follows: MTT assay on fibroblasts (selectivity). It counts as cell-based, murine. Conditions: Mus musculus, 72 h, values <20% considered negligible, read-out: Growth inhibition (%) ± SEM, NIH/3T3. Summed up:
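Seeding: 5000 cells/well, overnight. Treatment: compounds added at 10 or 30 μM, 72 h under standard culture conditions. Detection: MTT for 4 h, then DMSO dissolution of crystals with shaking at 37 °C for 60 min and reading at 545 nm. Cisplatin served as reference.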

The nature of series [7]: Intestinal-specific parallel artificial membrane permeability assay (PAMPA-GI). Conditions: gradient pH system (pH donor 6.5 → pH acceptor 7.4) after 4 h, at 37 °C; mean ± S.E.M, n = 3. It counts as in vitro ADME. In short, it runs like this: as §1
In series [8] the test system is human cancer cell lines (HeLa, SiHa, A2780, MCF-7 and MDA-MB-231). As to the kind of experiment: MTT antiproliferative assay, whole cancer cell panel. It counts as cell-based. Conditions: 10 and 30 μM. The protocol:
The in vitro antiproliferative activities of the synthesised aminotriols 5–18 against a panel of different human cancer cell lines of gynecological origin, including cervical (SiHA and HeLa), breast (MCF7 and MDA-MB-231), ovary (A2780) cancers and NIH/3T3 healthy fibroblasts, were assayed by the MTT method. Cisplatin, a clinically applied anticancer agent was used as a reference compound, and the results are summarised in Figure 3 and Table S1 in the Supplementary Materials.
The growth-inhibitory effects of the presented terpenes were determined by a standard MTT [3-(4,5-dimethylthiazol2-yl)-2,5-diphenyltetrazolium bromide] assay against […] human cancer cell lines (cervical cancer HeLa and SiHa cell lines, breast cancer MCF-7 and MDA-MB-231 and ovarian cancer A2780). Murine embryonal fibroblast cells (NIH/3T3) were used to determine selectivity. All cell lines were purchased from the European Collection of Cell Cultures (Salisbury, UK). The cells were cultivated in Eagle’s minimal essential medium supplemented with 10% fetal bovine serum, 1% non-essential amino acids, and 1% Antibiotic-Antimycotic complex (penicillin, streptomycin, amphotericin B) at 37 °C in a humidified atmosphere containing 5% CO2. All media and supplements were purchased from Lonza Group Ltd. (Basel, Switzerland). Cancer cells were seeded into 96-well plates (5000 cells/well) after an overnight incubation, and the test compounds were added at two different concentrations (10 μM and 30 μM) and incubated for another 72 h under cell-culturing conditions. Finally, 20 μL of a 5 mg/mL MTT solution was added to each well, and the contents were incubated for a further 4 h. The medium was removed, and the precipitated formazan crystals were dissolved in DMSO by shaking at 37 °C for 60 min. The absorbance was measured at 545 nm by using a microplate reader (SPECTROStar Nano, BMG Labtech, Offenburg, Germany). Clinically utilised anticancer agent cisplatin (Ebewe GmbH, Unterach, Austria) was included as a reference molecule. Calculations were performed using the GraphPad Prism 9 software (GraphPad Software Inc., San Diego, CA, USA).

The subject of series [9] is MCF-7 cells. The series is described as follows: MTT antiproliferative assay, MCF-7. Format: cell-based, human. Particulars: Homo sapiens, 72 h, values <20% considered negligible, read-out: Growth inhibition (%) ± SEM, MCF-7. Summed up: as §2

Molecule `COC(=O)[C@]1(C)CCC[C@@]2(C)C3CC[C@]4(O)C[C@@]3(CCC21)[C@@H](O)[C@]4(O)CN` (stereo partly drawn) [Compound 17, (4R,6aR,7R,8R,9S,11bS)-Methyl 8-(Aminomethyl)-7,8,9-trihydroxy-4,11b-dimethyltetradecahydro-6a,9-methanocyclohepta[a]naphthalene-4-carboxylate] had a melting point of 152 to 155 °C. For the same molecule, in [1], the kinetic solubility at 2 h stood at 535 ± 38.4 µM (≈ 204 µg/mL). The inhibition at 10 µM in [2] (MDA-MB-231, 10 μM) was less than 20%. For the same molecule, the inhibition at 30 µM in series [2] (MDA-MB-231, 30 μM) stood at 30.4 ± 2.04%. In series [3] (10 μM), the inhibition at 10 µM is less than 20%. Also, the inhibition at 30 µM in series [3] (30 μM) amounted to 28.9 ± 2.72%. Besides, the inhibition at 10 µM in [4] (10 μM) was less than 20%. Moreover, the inhibition at 30 µM in series [4] (30 μM) was less than 20%. Moreover, in series [5] (A2780, 10 μM), the inhibition at 10 µM was less than 20%. Moreover, the inhibition at 30 µM in series [5] (A2780, 30 μM) was less than 20%. The inhibition at 10 µM in series [6] (NIH3T3, 10 μM) is less than 20%. Besides, in series [6] (NIH3T3, 30 μM), the inhibition at 30 µM was less than 20%. In addition, the “PAMPA-GI MR (membrane retention)” value in series [7] stood at 1.5 ± 0.3%. Further, the “Antiproliferative activity on the cancer cell panel, in words” value in series [8] is on record as “any notable effect was not detectable”. In addition, the inhibition at 10 µM in series [9] (MCF7, 10 μM) was less than 20%. Moreover, the inhibition at 30 µM in [9] (MCF7, 30 μM) was less than 20%.

In general, solubility (kinetic) refers to the concentration staying in solution when a stock, usually in DMSO, is diluted into the medium. Usually melting point stands for the temperature of the solid-liquid transition.
